Experimental data taken from patent US20100267653A1, “USE OF COUMARIN DERIVATIVES IN ANTIFUNGAL THERAPY” (priority 2006, published 2010).
≈ marks a conversion by molar mass, not a printed value.

Tests used:
[1] = Solubility of coumarins in RPMI 1640 media and DMSO; type: physicochemical; conditions: for solubility: aqueous buffer, kinetic from dmso stock, pH = 7.0, in presence of the DMSO concentration of the same table line
Description: The solubility of the aglycones was compared to the respective glycoside in RPMI 1640 media and in DMSO.
(§1) Solubilisation of other compounds required the presence of DMSO. Esculetin, daphnetin, 4-(trifluoromethyl) coumarin, 4-(trifluoromethyl)-coumarin-7-0-glucose and cichoriin were dissolved in DMSO at 1000× final test concentration; when this solution was diluted to the concentration used in the experiments using 2× strength RPMI 1640 medium, the final concentration of DMSO was […] which alone had no effect on the fungi when tested in several experiments performed. Fraxetin required a final concentration of 0.2% DMSO, but this too had no effect on the growth of the fungi when tested in separate experiments.

[2] = tested on: Trichophyton rubrum NCPF118; assay: Antifungal activity, growth in RPMI 1640 microtitre plates (OD 530 nm); type: cell-based; conditions: for MIC: Trichophyton rubrum, T. rubrum NCPF118, 30° C., read-out: MIC
Description: (§2) Esculin, esculetin and a range of other coumarins and their glycosides were tested for their antifungal activity against Trichophyton rubrum, Trichophyton interdigitale and other fungi isolated from nails and skin.
(§3) Suspensions of fungal conidia and hyphal fragments for use as experimental inocula were prepared by adding 3 ml of demineralised water or 0.15% (w/v) NaCl solution to a slope culture which had been incubated at 30° C. for 7 to 10 days and probing the surface of the culture with a sterile plastic transfer pipette. […] The resulting suspension was filtered through a double layer of sterile surgical gauze; if necessary a further volume of up to 3 ml of water or 0.15% (w/v) NaCl was used to wash through any spores or small hyphal fragments held on the gauze. 100 μl of this suspension, adjusted to an optical density between 0.14 and 0.16 at 530 nm (corresponding to between 0.5 and 1.5×10^6 propagules/ml) was added to the wells in sterile 96-well microtitre plates to which 100 μl of 2× strength RPMI 1640 media (a chemically-defined nutrient medium widely used in tissue culture and antimicrobial resistance testing) had been added. Inocula prepared in this way were used in all of the experiments; additionally, for some experiments with esculin shown in FIG. 4, the results obtained with standard inocula prepared as described above (labelled “young inoculum” in FIG. 4), were compared with the results obtained in similar tests using inocula which had been cultured for up to 9 weeks (labelled “old inoculum” in FIG. 4). As appropriate, coumarins were pre-dissolved in 2× strength RPMI 1640 medium before addition to the plate. Experiments with the yeasts Candida albicans and Candida krusei were set up in the same way, but in these cases, filtration of the cell suspensions was not necessary.
as §1
(§4) A series of dilutions of the coumarin solutions was prepared on the plates by mixing known volumes of the coumarin stock solutions in the wells with fresh volumes of 2×RPMI 1640 medium. Each concentration of coumarin was studied in triplicate wells. For observations on Trichophyton rubrum NCPF118 and Trichophyton interdigitale NCPF335, obtained from the National Collection of Pathogenic Fungi (Bristol), the plates were incubated in a Bio-Tek Powerwave XS scanning plate reader at 30° C., and fungal growth within the plates was measured at intervals of 2 h for up to 72 h or 96 h as specified in the text by recording the absorbance (optical density) of the wells at 530 nm. Observations on Candida albicans and Candida krusei were made in the same way, but the incubation temperature was 37° C. and the incubation time was 48 h. For observations with clinical fungal isolates obtained from the collection of M. Monod (Lausanne, Switzerland), the procedure was as described above except that in response to the relatively slow growth of these isolates, incubations were performed in a static incubator at 30° C. and the plates were read manually in a Bio-Tek Powerwave XS scanning plate reader at intervals of 24 h for up to 168 h, being returned to the incubator after each reading. Malassezia furfur grows poorly in the system described above, so for this organism, a standard inoculum of M. furfur was mixed with an equal volume of a solution of esculetin and the mixture was plated onto Petri dishes containing Sabouraud's agar medium. […]

[3] = tested on: Trichophyton interdigitale NCPF335; assay: as above; type: cell-based
Description: as §2, §3, §1, §4

[4] = tested on: Candida albicans, Cryptococcus neoformans, Saccharomyces cerevisiae and Aspergillus niger; conditions: Sardari et al, Bioorg. Med. Chem. 7, 1999; cited from earlier work
[5] = DMSO present for the stated solubility in RPMI 1640
[6] = old inoculum (cultured up to 9 weeks) versus young inoculum, FIG. 4

Question: For `O=c1cc(C(F)(F)F)c2ccc(OC3O[C@H](CO)[C@@H](O)[C@H](O)[C@H]3O)cc2o1` (stereo partly drawn) [4-(trifluoromethyl)coumarin-7-glucoside], which “DMSO Concentration” value ([1]; pH 7) is on record?
Answer: 0 % v/v

Question: With `O=c1cc(C(F)(F)F)c2ccc(O)cc2o1` [4-(trifluoromethyl)coumarin, 7-hydroxy-4-(trifluoromethyl)coumarin] as the molecule, how does the “solubility (in words)” value [1] read?
Answer: only being soluble at low concentrations

Question: And the “DMSO Concentration” value [1, 5]?
Answer: 0.2 % v/v

Question: And the solubility ([1]; RPMI 1640 medium with DMSO co-solvent)?
Answer: 2000 µM

Question: And the MIC [2]?
Answer: 1000 µM (≈ 230 µg/mL)

Question: What about the “activity of halogenated coumarin aglycone versus T. rubrum NCPF118” value ([2]; at concentrations of 1-2 mM, FIG. 6) of the same molecule?
Answer: significantly antifungal

Question: With `O=c1ccc2cc(OC3OC(CO)C(O)C(O)C3O)c(O)cc2o1` (stereo not drawn) [Esculin, 6,7 dihydroxycoumarin-6-glucoside] as the molecule, how does the “DMSO Concentration” value [1, 5] read?
Answer: 0 % v/v

Question: What about the solubility [1] of the same molecule?
Answer: 20000 µM

Question: And the “solubility in 2×RPMI 1640 solution (in words)” value ([1]; without DMSO)?
Answer: dissolves readily

Question: What about the “effect on the growth of Trichophyton interdigitale NCPF335” value ([3]; addition of β-glucosidase and esculin, FIG. 2) of the same molecule?
Answer: significantly inhibits fungal growth

Question: What about the “sensitivity of older cultures of T. interdigitale NCPF335” value [3, 6] of the same molecule?
Answer: more sensitive

Question: And the “effect on the growth of Trichophyton rubrum NCPF118” value ([2]; addition of β-glucosidase and esculin, FIG. 1)?
Answer: significantly inhibits fungal growth

Question: What about the “sensitivity of older cultures of T. rubrum NCPF118” value [2, 6] of the same molecule?
Answer: more sensitive

Question: And the “antifungal activity against the fungi tested” value [4]?
Answer: minimal antifungal activity

Question: With `COc1cc2ccc(=O)oc2c(O)c1O` [Fraxetin, 7,8 dihydroxy-6-methoxycoumarin] as the molecule, how does the “DMSO Concentration” value [1, 5] read?
Answer: 0.4 % v/v

Question: And the solubility [1]?
Answer: 5000 µM

Question: What about the MIC ([3]; Trichophyton interdigitale, T. interdigitale NCPF335, 30° C.) of the same molecule?
Answer: 500 µM (≈ 104 µg/mL)

Question: What about the MIC [2] of the same molecule?
Answer: 250 µM (≈ 52 µg/mL)
